Results as given in patent US20240239781A1, “1H-PYRAZOLE DERIVATIVES AS SIGMA LIGANDS” (ACONDICIONAMIENTO TARRASENSE, priority 2021, published 2024).

Key:
[1] = system: mechanical hypersensitivity; details: SNI mice model of neuropathic pain; cited from earlier work
sigma-2 (σ2) site = sigma-2 (σ2) site (Homo sapiens, UniProt Q5BJF2); details: background statement; cited from earlier work
human σ1 receptor = molecular target: T1, human σ1 receptor (Homo sapiens, UniProt Q99720); assay: Human σ1 receptor radioligand assay ([3H](+)-pentazocine, transfected HEK-293 membranes); details: class scale, read-out: Binding σ-1 Ki
T1 construct: expressed in transfected cells; host or cells: HEK-293
T1 sequence (Q99720 whole entry): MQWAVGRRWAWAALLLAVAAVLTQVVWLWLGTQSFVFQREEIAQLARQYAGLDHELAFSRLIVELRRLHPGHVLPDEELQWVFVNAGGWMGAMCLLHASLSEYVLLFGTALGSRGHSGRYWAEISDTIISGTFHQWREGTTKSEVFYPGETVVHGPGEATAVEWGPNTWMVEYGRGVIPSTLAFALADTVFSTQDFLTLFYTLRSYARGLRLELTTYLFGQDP
Procedure, shortened: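 Compounds were tested at a single 1 or 10 μM concentration (% inhibition) or at five concentrations to give Ki. They competed with 5 nM [3H](+)-pentazocine for transfected HEK-293 membranes (7 μg) in 50 mM Tris-HCl pH 8 at 37° C for 120 minutes. Nonspecific binding was set with 10 μM haloperidol, and a filtration scintillation read-out was used.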

human σ2/TMEM97 receptor = molecular target: T2, human σ2/TMEM97 receptor (Homo sapiens, UniProt Q5BJF2); assay: Binding assay to human σ2/TMEM97 receptor ([3H]-DTG, transfected HEK-293 membranes); details: class scale, read-out: Binding σ-2 Ki
T2 construct: expressed in transfected cells; host or cells: HEK-293
T2 sequence (Q5BJF2 whole entry): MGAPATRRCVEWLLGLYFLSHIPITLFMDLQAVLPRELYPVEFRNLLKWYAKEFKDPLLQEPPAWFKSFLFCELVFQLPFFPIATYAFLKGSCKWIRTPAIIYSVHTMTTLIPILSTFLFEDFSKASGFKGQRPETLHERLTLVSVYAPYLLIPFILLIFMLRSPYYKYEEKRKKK
Procedure, shortened: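 Competition against 10 nM [3H]-DTG (Tris-HCl 50 mM, pH 8.0, 25 °C, 120 min) using 15 μg transfected HEK-293 membrane protein, with 10 μM haloperidol defining NSB. Bound radioactivity counted after filtration; results as single-point % inhibition (1 or 10 μM) or five-point Ki.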

Chain of sigma-2 (σ2) site (Q5BJF2 whole entry): as above

Compound	effect on mechanical hypersensitivity [1]	affinity for the sigma-2 (σ2) site (sigma-2 (σ2) site)	Ki (human σ1 receptor) [nM]	Ki (human σ2/TMEM97 receptor) [nM]
OCCCN1CCCC2CC1c1cc(-c3ccc(C(F)(F)F)cc3)ccc12 (stereo not shown) [UKH-1114]	relieved mechanical hypersensitivity			
(+)-SKF-10047		micromolar affinity		
Cc1conc1-c1nn(C)c(Cl)c1CN1CCCCC(NCCC(C)C)C1 (stereo not shown) [Example 28, 1-((5-Chloro-1-methyl-3-(4-methylisoxazol-3-yl)-1H-pyrazol-4-yl)methyl)-N-isopentylazepan-3-amine]			100 to 500	100 to 500
Cc1cc(-c2nn(C)c(Cl)c2CN2CCC[C@@H](NCCC(C)C)C2)no1 [Example 5, (R)-1-((5-Chloro-1-methyl-3-(5-methylisoxazol-3-yl)-1H-pyrazol-4-yl)methyl)-N-isopentylpiperidin-3-amine]			500 to 1000	100 to 500
CCn1nc(-c2ccon2)c(CC(=O)Nc2ccc3c(c2)CCN(CCC(C)(C)C)C3)c1Cl [Example 211, 2-(5-Chloro-1-ethyl-3-(isoxazol-3-yl)-1H-pyrazol-4-yl)-N-(2-(3,3-dimethylbutyl)-1,2,3,4-tetrahydroisoquinolin-6-yl)acetamide]			< 100	< 100
CCn1nc(-c2cc(C)on2)c(CN2CCCCC(NCCC(C)C)C2)c1Cl (stereo not shown) [Example 14, 1-((5-Chloro-1-ethyl-3-(5-methylisoxazol-3-yl)-1H-pyrazol-4-yl)methyl)-N-isopentylazepan-3-amine]			100 to 500	> 1000
Cc1cc(-c2nn(C)c(Cl)c2CN2CC[C@@H](CNCCC(C)(C)C)C2)no1 [Example 73, (S)-N-((1-((5-Chloro-1-methyl-3-(5-methylisoxazol-3-yl)-1H-pyrazol-4-yl)methyl)pyrrolidin-3-yl)methyl)-3,3-dimethylbutan-1-amine]			100 to 500	< 100
CCn1nc(-c2cc(C)on2)c(C(=O)NCC2CCCN(CCC(C)(C)C)C2)c1Cl (stereo not shown) [Example 205, 5-Chloro-N-((1-(3,3-dimethylbutyl)piperidin-3-yl)methyl)-1-ethyl-3-(5-methylisoxazol-3-yl)-1H-pyrazole-4-carboxamide]			< 100	< 100
Cc1cc(-c2nn(C)c(Cl)c2CN2CCC3(CCN(CCC(C)(C)C)CC3)CC2=O)no1 [Example 115, 3-((5-Chloro-1-methyl-3-(5-methylisoxazol-3-yl)-1H-pyrazol-4-yl)methyl)-9-(3,3-dimethylbutyl)-3,9-diazaspiro[5.5]undecan-2-one]			100 to 500	< 100
Cc1cc(-c2nn(C)c(Cl)c2C(=O)N2CCC3(CCN(CCC(C)C)CC3)CC2)no1 [Example 90, (5-Chloro-1-methyl-3-(5-methylisoxazol-3-yl)-1H-pyrazol-4-yl)(9-isopentyl-3,9-diazaspiro[5.5]undecan-3-yl)methanone]			500 to 1000	100 to 500
Cc1cc(-c2nn(C(C)C)c(Cl)c2C(=O)N2CCC3(CCN(CCC(C)(C)C)CC3)CC2)no1 [Example 183, (5-Chloro-1-isopropyl-3-(5-methylisoxazol-3-yl)-1H-pyrazol-4-yl)(9-(3,3-dimethylbutyl)-3,9-diazaspiro[5.5]undecan-3-yl)methanone]			500 to 1000	< 100
Cc1cc(-c2nn(C)c(Cl)c2CN2CCC(CNCCC(C)C)CC2)no1 [Example 41, N-((1-((5-Chloro-1-methyl-3-(5-methylisoxazol-3-yl)-1H-pyrazol-4-yl)methyl)piperidin-4-yl)methyl)-3-methylbutan-1-amine]			100 to 500	100 to 500
Cc1cc(-c2nn(C)c(Cl)c2CC(=O)N2CCCC3(CCN(CCC(C)(C)C)CC3)C2)no1 [Example 214, 2-(5-Chloro-1-methyl-3-(5-methylisoxazol-3-yl)-1H-pyrazol-4-yl)-1-(9-(3,3-dimethylbutyl)-2,9-diazaspiro[5.5]undecan-2-yl)ethan-1-one]			100 to 500	< 100
CCn1ccc(-c2nn(C)c(Cl)c2C(=O)N2CCC3(CCN(CCC(C)(C)C)CC3)CC2)n1 [Example 179, (5-Chloro-1′-ethyl-1-methyl-1H,1′H-[3,3′-bipyrazol]-4-yl)(9-(3,3-dimethylbutyl)-3,9-diazaspiro[5.5]undecan-3-yl)methanone]			> 1000	< 100
CCn1nc(-c2cc(C)on2)c(C(=O)NC2CCCN(CCC(C)(C)C)CC2)c1Cl (stereo not shown) [Example 160, 5-Chloro-N-(1-(3,3-dimethylbutyl)azepan-4-yl)-1-ethyl-3-(5-methylisoxazol-3-yl)-1H-pyrazole-4-carboxamide]			< 100	< 100
Cc1cc(-c2nn(C)c(Cl)c2C(=O)N2CCC3(CCN(CCC(C)(C)C)CC3)C2)no1 [Example 94, (5-Chloro-1-methyl-3-(5-methylisoxazol-3-yl)-1H-pyrazol-4-yl)(8-(3,3-dimethylbutyl)-2,8-diazaspiro[4.5]decan-2-yl)methanone]			> 1000	100 to 500
Cc1cc(-c2nn(C)c(Cl)c2C(=O)N2CCC3(CCN(Cc4ccc(F)c(F)c4)CC3)CC2)no1 [Example 130, (5-Chloro-1-methyl-3-(5-methylisoxazol-3-yl)-1H-pyrazol-4-yl)(9-(3,4-difluorobenzyl)-3,9-diazaspiro[5.5]undecan-3-yl)methanone]			500 to 1000	100 to 500
Cc1cc(-c2nn(C)c(Cl)c2C(=O)N2CCC3(CCN(Cc4ccccc4)CC3)CC2)no1 [Example 175, (9-Benzyl-3,9-diazaspiro[5.5]undecan-3-yl)(5-chloro-1-methyl-3-(5-methylisoxazol-3-yl)-1H-pyrazol-4-yl)methanone]			500 to 1000	< 100
Cc1cc(-c2nn(C)c(Cl)c2CN2CCCCC(N(C)CCC(C)C)C2)no1 (stereo not shown) [Example 80, 1-((5-Chloro-1-methyl-3-(5-methylisoxazol-3-yl)-1H-pyrazol-4-yl)methyl)-N-isopentyl-N-methylazepan-3-amine]			100 to 500	500 to 1000
CCn1nc(-c2ccon2)c(CC(=O)NC2CC3(CCN(CCC(C)(C)C)CC3)C2)c1Cl [Example 224, 2-(5-chloro-1-ethyl-3-(isoxazol-3-yl)-1H-pyrazol-4-yl)-N-(7-(3,3-dimethylbutyl)-7-azaspiro[3.5]nonan-2-yl)acetamide]			100 to 500	< 100
Cc1cc(-c2nn(C)c(Cl)c2CN2CC[C@@H](CNCCc3ccccc3)C2)no1 [Example 72, (S)-N-((1-((5-chloro-1-methyl-3-(5-methylisoxazol-3-yl)-1H-pyrazol-4-yl)methyl)pyrrolidin-3-yl)methyl)-2-phenylethanamine]			500 to 1000	100 to 500
Cc1cc(-c2nn(C)c(Cl)c2CN2CCCC(CNCC(C)C)C2)no1 (stereo not shown) [Example 48, N-((1-((5-Chloro-1-methyl-3-(5-methylisoxazol-3-yl)-1H-pyrazol-4-yl)methyl)piperidin-3-yl)methyl)-2-methylpropan-1-amine]			> 1000	100 to 500
Cc1cc(-c2nn(C)c(Cl)c2CN2CCC(CNCCC(C)(C)C)C2)no1 (stereo not shown) [Example 1, N-((1-((5-Chloro-1-methyl-3-(5-methylisoxazol-3-yl)-1H-pyrazol-4-yl)methyl)pyrrolidin-3-yl)methyl)-3,3-dimethylbutan-1-amine]			100 to 500	> 1000
Cn1nc(-c2cc(C3CC3)on2)c(C(=O)N2CCC3(CCN(CCC(C)(C)C)CC3)CC2)c1Cl [Example 191, (5-Chloro-3-(5-cyclopropylisoxazol-3-yl)-1-methyl-1H-pyrazol-4-yl)(9-(3,3-dimethylbutyl)-3,9-diazaspiro[5.5]undecan-3-yl)methanone]			100 to 500	< 100
Cc1cc(-c2nn(C)c(Cl)c2C(=O)N2CC[C@]3(C2)C[C@@H](NCCC(C)(C)C)C3)no1 [Example 123, (5-Chloro-1-methyl-3-(5-methylisoxazol-3-yl)-1H-pyrazol-4-yl)((2r,4s)-2-((3,3-dimethylbutyl)amino)-6-azaspiro[3.4]octan-6-yl)methanone]			> 1000	< 100
CCn1nc(-c2cc(C3CC3)on2)c(C(=O)N2CCC3(CCN(CCC(C)(C)C)CC3)CC2)c1Cl [Example 190, (5-Chloro-3-(5-cyclopropylisoxazol-3-yl)-1-ethyl-1H-pyrazol-4-yl)(9-(3,3-dimethylbutyl)-3,9-diazaspiro[5.5]undecan-3-yl)methanone]			100 to 500	< 100
Cn1nc(-c2cccc(C(F)(F)F)n2)c(CN2CC3(CCN(CCC(C)(C)C)CC3)CC2=O)c1Cl [Example 227, 2-((5-Chloro-1-methyl-3-(6-(trifluoromethyl)pyridin-2-yl)-1H-pyrazol-4-yl)methyl)-8-(3,3-dimethylbutyl)-2,8-diazaspiro[4.5]decan-3-one]			< 100	< 100
